What all share (type): in vivo
One assay has as its system Megoura viciae. The experiment in a line: Vetch aphid (Megoura viciae) leaf disk test. As to conditions: foliar, 120 h, read-out: mortality in comparison with untreated controls (aphid mortality). The method, then: For evaluating control of vetch aphid (Megoura viciae) through contact or systemic means the test unit consisted of 24-well-microtiter plates containing broad bean leaf disks.
The compounds were formulated using a solution containing 75% v/v water and 25% v/v DMSO. Different concentrations of formulated compounds were sprayed onto the leaf disks at 2.5 μl, using a custom built micro atomizer, at two replications.
After application, the leaf disks were air-dried and 5-8 adult aphids placed on the leaf disks inside the microtiter plate wells. The aphids were then allowed to suck on the treated leaf disks and incubated at about 23±1° C. and about 50±5% relative humidity for 5 days. Aphid mortality and fecundity was then visually assessed.

In a further assay the test system is Myzus persicae. The experiment in a line: Green peach aphid (Myzus persicae) systemic artificial diet test. As to conditions: 72 h, read-out: mortality in comparison with untreated controls (aphid mortality). The source says: For evaluating control of green peach aphid (Myzus persicae) through systemic means the test unit consisted of 96-well-microtiter plates containing liquid artificial diet under an artificial membrane.
The compounds were formulated using a solution containing 75% v/v water and 25% v/v DMSO. Different concentrations of formulated compounds were pipetted into the aphid diet, using a custom built pipetter, at two replications.
After application, 5-8 adult aphids were placed on the artificial membrane inside the microtiter plate wells. The aphids were then allowed to suck on the treated aphid diet and incubated at about 23±1° C. and about 50±5% relative humidity for 3 days. Aphid mortality and fecundity was then visually assessed.

The next assay deals with Nilaparvata lugens. Put plainly: Rice brown plant hopper (Nilaparvata lugens) rice seedling spray test. Conditions: read-out: mortality in comparison with untreated controls. The method, then:
Rice seedlings were cleaned and washed 24 hours before spraying. The active compounds were formulated in 50:50 acetone:water (vol:vol) and 0.1% vol/vol surfactant (EL 620) was added. Potted rice seedlings were sprayed with 5 ml test solution, air dried, placed in cages and inoculated with 10 adults. Treated rice plants were kept at about 28-29° C. and relative humidity of about 50-60%. Percent mortality was recorded after 72 hours.

For another assay, the system named is Dichromothrips corbetti. The experiment in a line: Orchid thrips (Dichromothrips corbetti) floral-immersion test. Conditions: read-out: mortality in comparison with untreated controls. The method, then: Dichromothrips corbetti adults used for bioassay were obtained from a colony maintained continuously under laboratory conditions. For testing purposes, the test compound is diluted in a 1:1 mixture of acetone:water (vol:vol), plus 0.01% vol/vol Alkannuls® EL 620 surfactant.
Thrips potency of each compound was evaluated by using a floral-immersion technique. Plastic petri dishes were used as test arenas. All petals of individual, intact orchid flowers were dipped into treatment solution and allowed to dry. Treated flowers were placed into individual petri dishes along with about 20 adult thrips. The petri dishes were then covered with lids. All test arenas were held under continuous light and a temperature of about 28° C. for duration of the assay. After 3 days, the numbers of live thrips were counted on each flower, and along inner walls of each petri dish. The percent mortality was recorded 72 hours after treatment.

Another assay relates to Anthonomus grandis. Put plainly: Boll weevil (Anthonomus grandis) diet microtiter plate test. Conditions: 120 h, read-out: mortality in comparison with untreated controls (egg and larval mortality). The method, then:
For evaluating control of boll weevil (Anthonomus grandis) the test unit consisted of 96-well-microtiter plates containing an insect diet and 5-10 A. grandis eggs.
The compounds were formulated using a solution containing 75% v/v water and 25% v/v DMSO. Different concentrations of formulated compounds were sprayed onto the insect diet at 5 μl, using a custom built micro atomizer, at two replications.
After application, microtiter plates were incubated at about 25±1° C. and about 75±5% relative humidity for 5 days. Egg and larval mortality was then visually assessed.

For another assay, the system named is Nephotettix virescens. The experiment in a line: Rice green leafhopper (Nephotettix virescens) rice seedling spray test. As to conditions: read-out: mortality in comparison with untreated controls. The method, then:
Rice seedlings were cleaned and washed 24 hours before spraying. The active compounds were formulated in 50:50 acetone:water (vol:vol), and 0.1% vol/vol surfactant (EL 620) was added. Potted rice seedlings were sprayed with 5 ml test solution, air dried, placed in cages and inoculated with 10 adults. Treated rice plants were kept at about 28-29° C. and relative humidity of about 50-60%. Percent mortality was recorded after 72 hours.

Another assay concerns Heliothis virescens. Put plainly: Tobacco budworm (Heliothis virescens) diet microtiter plate test. Conditions: 120 h, 2500 ppm, sprayed onto insect diet, 5 days, read-out: mortality in comparison with untreated controls (egg and larval mortality). The method, then: For evaluating control of tobacco budworm (Heliothis virescens) the test unit consisted of 96-well-microtiter plates containing an insect diet and 15-25 H. virescens eggs. The compounds were formulated using a solution containing 75% v/v water and 25% v/v DMSO. Different concentrations of formulated compounds were sprayed onto the insect diet at 10 μl, using a custom built micro atomizer, at two replications.
After application, microtiter plates were incubated at about 28±1° C. and about 80±5% relative humidity for 5 days. Egg and larval mortality was then visually assessed.

[1] abbreviates: 2500 ppm, sprayed broad bean leaf disks, 5 days.
Setting [2] is: 2500 ppm, in aphid diet, 3 days.
Setting [3] is: 500 ppm, sprayed rice seedlings, after 72 hours.
[4] abbreviates: 500 ppm, floral immersion, 72 hours after treatment.
Setting [5] is: 2500 ppm, sprayed onto insect diet, 5 days.

Like-named read-outs stand apart in the source and are kept apart here.

As usually defined, the mortality is the share of the test organisms that died. `C[C@@H]1C[C@@H](c2cnc(Cl)s2)[n+]2c([O-])c(-c3ccccc3)c(=O)n(C)c21` (racemic) [Compound C-29]: the mortality at 2500 ppm in the assay with Megoura viciae (setting [1]), with Myzus persicae (setting [2]) and with Anthonomus grandis (setting [5]) was more than 75% each time. Further, the mortality at 500 ppm in the assay with Nilaparvata lugens (setting [3]) and in the assay on Dichromothrips corbetti (setting [4]) was more than 75% each time.
For `Cn1c2[n+](c([O-])c(-c3cccc(C(F)(F)F)c3)c1=O)[C@@H](c1cnc(Cl)s1)CC2` (single isomer, unassigned) [Compound C-28], the mortality at 500 ppm in the assay with Nephotettix virescens (setting [3]), in the assay on Nilaparvata lugens (setting [3]) and with Dichromothrips corbetti (setting [4]) was more than 75% each time.
As for `CC[n+]1c([O-])c(-c2ccccc2)c(=O)n2c1CCC2c1ccc(Cl)nc1` (centres unmarked) [Compound C-2], the mortality at 2500 ppm with Megoura viciae and in the assay with Myzus persicae was more than 75% each time. Besides, the mortality at 500 ppm in the assay with Nephotettix virescens (72 h) and in the assay with Dichromothrips corbetti (72 h) was more than 75% throughout.
Take `CC(C)[n+]1c([O-])c(-c2ccccc2)c(=O)n2c1CCC2c1ccc(Cl)nc1` (centres unmarked) [Compound C-3]: the mortality at 2500 ppm in the assay on Megoura viciae (in Vicia faba), with Myzus persicae and in the assay with Anthonomus grandis was more than 75% each time. In addition, the mortality at 500 ppm in the assay on Dichromothrips corbetti (72 h) is more than 75%.
`C[n+]1c([O-])c(-c2ccccc2)c(=O)n2c1CCC2c1cnc(Cl)s1` (centres unmarked) [Compound C-6, 6-(2-chlorothiazol-5-yl)-1-methyl-4-oxo-3-phenyl-3,6,7,8-tetrahydro-2H-pyrrolo[1,2-a]pyrimidin-5-ium-2-olate]: the mortality at 2500 ppm in the assay with Megoura viciae and in the assay with Myzus persicae was more than 75% throughout. The mortality at 500 ppm in the assay on Nephotettix virescens (72 h), with Nilaparvata lugens (72 h) and in the assay with Dichromothrips corbetti (72 h) was more than 75% throughout.
In the case of `C[n+]1c([O-])c(-c2ccccc2)c(=O)n2c1CCCC2c1ccc(Cl)nc1` (centres unmarked) [Compound C-8, 6-(6-chloro-3-pyridyl)-1-methyl-4-oxo-3-phenyl-6,7,8,9-tetrahydropyrido[1,2-a]pyrimidin-5-ium-2-olate], the mortality at 2500 ppm with Megoura viciae and in the assay on Myzus persicae was more than 75% each time. Moreover, the mortality at 500 ppm with Nephotettix virescens (72 h) and in the assay with Dichromothrips corbetti (72 h) was more than 75% in each case.
In the case of `CSc1ncc(C2CCCc3n2c(=O)c(-c2ccccc2)c([O-])[n+]3C)s1` (centres unmarked) [Compound C-12], in the assay with Myzus persicae (setting [2]), the mortality at 2500 ppm was more than 75%.
With `C[n+]1c([O-])c(-c2ccccc2)c(=O)n2c1CCCC2c1cnc(Cl)s1` (centres unmarked) [Compound C-13], the mortality at 2500 ppm with Megoura viciae (setting [1]) and in the assay on Myzus persicae (setting [2]) was more than 75% each time.
Take `C=CCn1c([O-])c(-c2ccccc2)c(=O)[n+]2c1CCC2c1cnc(Cl)s1` (centres unmarked) [Compound C-17]: in the assay on Myzus persicae (setting [2]), the mortality at 2500 ppm is more than 75%.
In the case of `Cn1c2[n+](c([O-])c(-c3ccccc3)c1=O)C(c1cnc(Cl)s1)CO2` (centres unmarked) [Compound C-19], the mortality at 2500 ppm with Megoura viciae is more than 75%.
With `COC1=NC(c2c[n+]3c(=O)c(-c4ccccc4)c([O-])n(Cc4ccccc4)c3s2)CC1` (centres unmarked) [Compound C-21], the mortality at 2500 ppm in the assay on Myzus persicae (setting [2]) was more than 75%.
Regarding `Cn1c2[n+](c([O-])c(-c3cccc(C(F)(F)F)c3)c1=O)C(c1cnc(Cl)s1)CC2` (centres unmarked) [Compound C-22], the mortality at 2500 ppm in the assay on Megoura viciae (setting [1]) and in the assay on Myzus persicae (setting [2]) was more than 75% in each case. Besides, the mortality at 500 ppm in the assay with Nephotettix virescens (setting [3]) and in the assay on Dichromothrips corbetti (setting [4]) was more than 75% each time.
Regarding `Cn1c2[n+](c([O-])c(-c3ccccc3)c1=O)C(c1cnc(Cl)c(-c3ccccc3)c1)CC2` (centres unmarked) [Compound C-23], the mortality at 2500 ppm with Myzus persicae (setting [2]) is more than 75%.
As for `CCn1c([O-])c(-c2ccccc2)c(=O)[n+]2c1CCC2c1cnc(Cl)s1` (centres unmarked) [Compound C-24], the mortality at 2500 ppm in the assay on Megoura viciae (setting [1]) and in the assay with Myzus persicae (setting [2]) was more than 75% in each case. For the same compound, the mortality at 500 ppm with Nephotettix virescens (setting [3]), in the assay with Nilaparvata lugens (setting [3]) and with Dichromothrips corbetti (setting [4]) was more than 75% each time.
For the compound `CCn1c([O-])c(-c2cccc(C(F)(F)F)c2)c(=O)[n+]2c1CCC2c1cnc(Cl)s1` (centres unmarked) [Compound C-27], the mortality at 2500 ppm in the assay with Megoura viciae (setting [1]) and in the assay with Myzus persicae (setting [2]) was more than 75% throughout. Moreover, in the assay on Dichromothrips corbetti (setting [4]), the mortality at 500 ppm was more than 75%.
For the compound `C=CCn1c([O-])c(-c2cc(Cl)cc(Cl)c2)c(=O)[n+]2c1CCC2c1cnc(Cl)s1` (centres unmarked) [Compound C-31], the mortality at 2500 ppm with Megoura viciae (setting [1]) and with Myzus persicae (setting [2]) was more than 75% throughout.
With `CCn1c([O-])c(-c2cccc(C(F)(F)F)c2)c(=O)[n+]2c1COC2c1ccc(Cl)nc1` (centres unmarked) [Compound C-32], in the assay with Myzus persicae, the mortality at 2500 ppm was more than 75%.
On to `O=c1c(-c2ccccc2)c([O-])n(Cc2ccccc2)c2[n+]1C(c1cnc(Cl)s1)CC2` (centres unmarked) [Compound C-34], for which the mortality at 2500 ppm with Megoura viciae (setting [1]) and in the assay with Myzus persicae (setting [2]) was more than 75% throughout. Further, in the assay on Dichromothrips corbetti (setting [4]), the mortality at 500 ppm was more than 75%.
Take `CCn1c([O-])c(-c2cccc(C(F)(F)F)c2)c(=O)[n+]2c1COC2c1cnc(Cl)s1` (centres unmarked) [Compound C-35]: the mortality at 500 ppm in the assay with Dichromothrips corbetti (setting [4]) was more than 75%.
Consider `Cn1c2[n+](c([O-])c(-c3ccccc3)c1=O)C(c1cnc(Cl)s1)CC2(C)C` (centres unmarked) [Compound C-40], for which the mortality at 2500 ppm with Megoura viciae (setting [1]), in the assay on Myzus persicae (setting [2]) and in the assay on Anthonomus grandis (setting [5]) was more than 75% each time.
For the compound `C=CCn1c([O-])c(-c2cccc(C(F)(F)F)c2)c(=O)[n+]2c1CCC2c1cnc(Cl)s1` (centres unmarked) [Compound C-41], the mortality at 2500 ppm in the assay on Myzus persicae (setting [2]) is more than 75%.
Still for that read-out and setting: with `CCn1c([O-])c(-c2cccc(-c3ccccc3)c2)c(=O)[n+]2c1COC2c1ccc(Cl)nc1` (centres unmarked) [Compound C-43] the figure was more than 75%.
`Cn1c2[n+](c([O-])c(-c3cccc(-c4ccccc4)c3)c1=O)C(c1cnc(Cl)s1)CC2` (centres unmarked) [Compound C-45]: the mortality at 2500 ppm with Megoura viciae (setting [1]), in the assay on Heliothis virescens and with Myzus persicae (setting [2]) was more than 75% in each case. The mortality at 500 ppm in the assay with Dichromothrips corbetti (setting [4]) was more than 75%.
Take `CCn1c([O-])c(-c2ccc(OC)cc2)c(=O)[n+]2c1CCC2c1cnc(Cl)s1` (centres unmarked) [Compound C-47]: the mortality at 2500 ppm with Megoura viciae (setting [1]), in the assay on Myzus persicae (setting [2]) and in the assay with Anthonomus grandis (setting [5]) was more than 75% in each case. In addition, the mortality at 500 ppm in the assay on Nephotettix virescens (setting [3]) and in the assay with Dichromothrips corbetti (setting [4]) was more than 75% throughout.
Take `Cn1c2[n+](c([O-])c(-c3cccc(-c4ncc(C(F)(F)F)cc4Cl)c3)c1=O)C(c1cnc(Cl)s1)CC2` (centres unmarked) [Compound C-48]: the mortality at 2500 ppm in the assay with Megoura viciae (setting [1]) and in the assay on Myzus persicae (setting [2]) was more than 75% each time. In addition, the mortality at 500 ppm with Dichromothrips corbetti (setting [4]) was more than 75%.
In the case of `CCn1c([O-])c(-c2cccc(-c3ccccc3)c2)c(=O)[n+]2c1CCC2c1cnc(Cl)s1` (centres unmarked) [Compound C-49], the mortality at 2500 ppm in the assay on Megoura viciae (setting [1]) and in the assay with Myzus persicae (setting [2]) was more than 75% in each case. For the same compound, in the assay on Dichromothrips corbetti (setting [4]), the mortality at 500 ppm was more than 75%.
In the case of `Cn1c2[n+](c([O-])c(-c3cc(Cl)cc(Cl)c3)c1=O)C(c1cnc(Cl)s1)CC2` (centres unmarked) [Compound C-50], the mortality at 2500 ppm in the assay with Megoura viciae (setting [1]) and in the assay with Myzus persicae (setting [2]) was more than 75% each time. In addition, in the assay on Dichromothrips corbetti (setting [4]), the mortality at 500 ppm was more than 75%.

Values taken from US11019820B2 (BASF SE, priority 2013, dated 2021).
